Consider five compounds from US20110223167A1, “COMBINATION THERAPY USING RECEPTOR TYROSINE KINASE INHIBITORS AND ANGIOGENESIS INHIBITORS” (priority 2001, published 2011).

The test system of the experiment is progressive squamous cell carcinoma of the superior maxilla. As to conditions: for tumor response: weekly: 1200 mg/m^2 Cilengitide Monday and Friday, 200 mg EMD 72000 followed by 1000 mg/m^2 gemcitabine Thursday, from November 2000; for effect on tumor growth: cisplatin (75 mg/m^2) and docetaxel (75 mg/m^2) together, three administrations, from August 1999.
[1] abbreviates: EMD 121974 (600 mg/m^2) combined with gemcitabine (1000 mg/m^2), since mid of January 2000.

Experimental: Case History and Clinical Findings/Status at the Start of the Compassionate use Treatment:
A biopsy of the suspected large tumor in the upper maxilla was performed. […] On Aug. […] Due to the unfavourable histologic classification the patient received a post-operative radiation therapy up to 50.4 Gray from September to October 1997.
In July 1998 progression of disease was suspected which led to hospitalization. […] After consultation of radiotherapists another radiotherapy was recommended which started in August 1998. The patient was treated simultaneously with gemcitabine (100 mg) as a radiosensitizer. […] Following the combined radio-chemotherapy the patient received a therapy with 1000 mg gemcitabine (5 circles of 16 administrations).
In March 1999 again progression of the carcinoma occurred which led to additional radiation therapy and palliative resection of the tumor.
Diffuse bleedings out of the large tumor mass required frequent transfusions of erythrocyte concentrates.
Course of Compassionate Use Treatment with Anti-Angiogenic Agent/Chemotherapeutic Agents:
The patient was treated with EMD 121974 and Gemzar from Nov. 17, 1999 until Mar. 30, 2000. From Jun. 04, 2000 until Apr. […] Chemotherapy-treatment was stopped because of haematotoxicity and Cilengitide treatment was continued alone.
The patient's condition worsened after several weeks and the patient was treated with an increased dose of 1200 mg/m^2 EMD 121974 twice weekly.
Treatment with h425+Cilengitide+Chemotherapeutics:
EMD 72000 was first given in November 2000 in a dosage of 200 mg (infusion over half an hour) after premedication with dexamethasone/dimetindenmaleate (Fenistil) and ranitidin (Zantic). One week later the patient received additionally gemcitabine (1000 mg/m^2). The weekly treatment schedule was: Monday: 1200 mg/m^2 Cilengitide (one hour is infusion), Thursday 200 mg EMD 72000 (half an hour infusion) followed by 1000 mg/m^2 gemcitabine (one hour infusion), Friday 1200 mg/m^2 Cilengitide (one hour infusion). […] The tumor masses were surgically removed at several occasions.

For `CC(C)[C@H]1C(=O)N[C@@H](CCCN=C(N)N)C(=O)NCC(=O)N[C@@H](CC(=O)O)C(=O)N[C@H](Cc2ccccc2)C(=O)N1C` [EMD 121974, Cyclo-(Arg-Gly-Asp-DPhe-NMeVal)], the tumor response result was “crater-like disintegration of the tumor mass”. In addition, the “surface of the tumor” value (EMD 121974 (600 mg/m^2) combined with gemcitabine (1000 mg/m^2)) was “signs of granulation and wound healing”. The tumor bleeding entry (EMD 121974 (600 mg/m^2) combined with gemcitabine (1000 mg/m^2), no need for further transfusions) is “Bleeding stopped”. Moreover, under setting [1], the hearing result is recorded as “able to hear again on their right ear” and the “increase of mouth opening compared with December 1999” value worked out at 30%. Moreover, the disease status entry (EMD 121974 alone, 600 mg/m^2 twice a week, April to June 2000) is “stable disease”.
For `N.N.[Cl][Pt][Cl]` [cisplatin, reference compound], the “effect on tumor growth” value was “lack of effect on tumor growth”.
As for `CC(=O)O[C@@]12CO[C@@H]1C[C@H](O)[C@@]1(C)C(=O)[C@H](O)C3=C(C)[C@@H](OC(=O)[C@H](O)[C@@H](NC(=O)OC(C)(C)C)c4ccccc4)C[C@@](O)([C@@H](OC(=O)c4ccccc4)[C@H]21)C3(C)C` [docetaxel, reference compound], the “effect on tumor growth” value is listed as “lack of effect on tumor growth”.
Consider `Nc1ccn([C@@H]2O[C@H](CO)[C@@H](O)C2(F)F)c(=O)n1` [gemcitabine, reference compound], for which the “tumor response (clinical remission)” value (radiotherapy with simultaneous gemcitabine (100 mg) as radiosensitizer, 6 week-therapy from August 1998) is given as “complete clinical remission”.
On to “EMD 72000: Monoclonal human antibody 425 (h425), Merck KgaA, Germany; anti-EGFR antibody”, for which the tumor response entry is given as “crater-like disintegration of the tumor mass”.
